Experiments:
[1] = target: T1, Heme-containing sGC (recombinant soluble guanylate cyclase) (Rattus norvegicus, UniProt P20595); test: Stimulation of recombinant soluble guanylate cyclase (sGC) in vitro, heme-containing enzyme; format: biochemical
T1 construct: made in house
T1 sequence (P20595 1-619): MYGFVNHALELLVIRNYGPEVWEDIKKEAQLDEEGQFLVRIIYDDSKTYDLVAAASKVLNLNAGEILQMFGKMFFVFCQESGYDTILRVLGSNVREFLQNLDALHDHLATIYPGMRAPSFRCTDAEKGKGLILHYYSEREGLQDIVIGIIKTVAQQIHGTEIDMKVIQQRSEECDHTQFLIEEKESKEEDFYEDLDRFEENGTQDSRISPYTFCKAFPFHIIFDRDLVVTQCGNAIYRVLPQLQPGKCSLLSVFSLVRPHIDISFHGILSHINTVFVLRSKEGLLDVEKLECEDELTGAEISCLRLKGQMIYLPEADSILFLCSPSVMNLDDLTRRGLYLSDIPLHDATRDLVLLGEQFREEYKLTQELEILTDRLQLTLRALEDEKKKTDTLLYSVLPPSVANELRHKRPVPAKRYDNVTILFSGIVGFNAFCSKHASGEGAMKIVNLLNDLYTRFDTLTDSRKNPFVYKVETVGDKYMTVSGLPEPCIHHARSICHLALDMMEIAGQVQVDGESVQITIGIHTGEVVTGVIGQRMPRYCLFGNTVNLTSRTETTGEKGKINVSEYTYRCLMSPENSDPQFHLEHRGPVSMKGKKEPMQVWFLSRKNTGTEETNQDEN
T1 sequence (P19686 1-690 partner): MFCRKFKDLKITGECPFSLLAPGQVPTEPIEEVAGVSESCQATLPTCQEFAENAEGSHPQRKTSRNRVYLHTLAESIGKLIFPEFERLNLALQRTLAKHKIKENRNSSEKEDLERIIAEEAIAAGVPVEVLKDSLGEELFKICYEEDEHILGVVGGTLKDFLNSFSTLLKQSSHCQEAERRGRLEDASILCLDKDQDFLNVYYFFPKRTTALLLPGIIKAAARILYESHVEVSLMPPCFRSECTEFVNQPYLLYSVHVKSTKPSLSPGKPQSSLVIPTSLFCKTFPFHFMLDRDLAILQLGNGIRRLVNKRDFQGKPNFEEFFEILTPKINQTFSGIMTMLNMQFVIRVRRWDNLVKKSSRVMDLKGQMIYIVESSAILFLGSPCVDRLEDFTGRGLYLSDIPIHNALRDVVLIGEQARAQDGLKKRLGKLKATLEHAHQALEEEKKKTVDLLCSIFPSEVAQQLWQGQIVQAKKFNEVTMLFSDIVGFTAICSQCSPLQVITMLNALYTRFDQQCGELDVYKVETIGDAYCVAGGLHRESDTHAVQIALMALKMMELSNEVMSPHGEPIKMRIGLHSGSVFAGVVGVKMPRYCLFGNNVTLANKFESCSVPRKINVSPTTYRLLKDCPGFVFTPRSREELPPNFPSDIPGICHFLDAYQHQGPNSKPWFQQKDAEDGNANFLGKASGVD
Text: Hoenicka, E. M. Becker, H. Apeler, T. Sirichoke, H. Schroeder, R. Gerzer and J.-P. Stasch, “Purified soluble guanylyl cyclase expressed in a baculovirus/Sf9 system: Stimulation by YC-1, nitric oxide, and carbon oxide”, J. Mol. Med. 77 (1999), 14-23. The heme-free guanylate cyclase is obtained by adding Tween 20 to the sample buffer (0.5% in the final concentration).
The activation of sGC by a test substance is reported as n-fold stimulation of the basal activity.

[2] = test system: spontaneously hypertensive rats (SH rats); test: Radiotelemetric measurement of blood pressure and heart rate on conscious SH rats; format: in vivo; details: oral administration of 10 mg/kg
Description: A commercially available telemetry system from Data Sciences International DSI, USA, is employed for the measurements on conscious SH rats described below.
The system consists of 3 main components: (1) implantable transmitter, (2) receiver which is linked via a multiplexer to a (3) data acquisition computer. The telemetry system makes it possible to record continuously the blood pressure and heart rate on conscious animals in their usual habitat.
The investigations are carried out on adult female spontaneously hypertensive rats (SH rats) with a body weight of >200 g. After transmitter implantation, the experimental animals are housed singly in type 3 Makrolon cages. They have free access to standard feed and water. […]
In the standard procedure, the following are measured for 10-second periods in each case: (1) systolic blood pressure (SBP), (2) diastolic blood pressure (DBP), (3) mean arterial pressure (MAP) and (4) heart rate (HR).
Measurement acquisition is repeated under computer control at 5-minute intervals. The source data obtained as absolute value are corrected in the diagram with the currently measured barometric pressure and stored in individual data. […]
The test substances are administered at 9.00 h on the day of the experiment. Following the administration, the parameters described above are measured over 24 hours. […]

- Stimulation (n-fold) Heme-containing sGC Basal ([1]; 0.001 μM Example 6): 1.9 n-fold
- Stimulation (n-fold) Heme-containing sGC +0.1 μM DEA/NO ([1]; 0.001 μM Example 6 + 0.1 μM DEA/NO): 62.0 n-fold
- Stimulation (n-fold) Heme-containing sGC +10 μM ODQ ([1]; 0.001 μM Example 6 + 10 μM ODQ): 4.8 n-fold
- Stimulation (n-fold) Heme-containing sGC Basal ([1]; 0.01 μM Example 6): 5.1 n-fold
- Stimulation (n-fold) Heme-containing sGC +0.1 μM DEA/NO ([1]; 0.01 μM Example 6 + 0.1 μM DEA/NO): 66.0 n-fold
- Stimulation (n-fold) Heme-containing sGC +10 μM ODQ ([1]; 0.01 μM Example 6 + 10 μM ODQ): 25.7 n-fold
- Stimulation (n-fold) Heme-containing sGC Basal ([1]; 0.1 μM Example 6): 20.2 n-fold
- Stimulation (n-fold) Heme-containing sGC +0.1 μM DEA/NO ([1]; 0.1 μM Example 6 + 0.1 μM DEA/NO): 80.0 n-fold
- Stimulation (n-fold) Heme-containing sGC +10 μM ODQ ([1]; 0.1 μM Example 6 + 10 μM ODQ): 102.7 n-fold
- Stimulation (n-fold) Heme-containing sGC Basal ([1]; 1 μM Example 6): 29.5 n-fold
- Stimulation (n-fold) Heme-containing sGC +0.1 μM DEA/NO ([1]; 1 μM Example 6 + 0.1 μM DEA/NO): 96.2 n-fold
- Stimulation (n-fold) Heme-containing sGC +10 μM ODQ ([1]; 1 μM Example 6 + 10 μM ODQ): 125.8 n-fold
- Stimulation (n-fold) Heme-containing sGC Basal ([1]; 10 μM Example 6): 42.1 n-fold
- Stimulation (n-fold) Heme-containing sGC +0.1 μM DEA/NO ([1]; 10 μM Example 6 + 0.1 μM DEA/NO): 99.9 n-fold
- Stimulation (n-fold) Heme-containing sGC +10 μM ODQ ([1]; 10 μM Example 6 + 10 μM ODQ): 135.0 n-fold
- Effect of combination with the NO donor DEA/NO on sGC stimulation ([1]; combination of Example 6 and DEA/NO): no synergistic effect
- Effect of the heme-dependent sGC inhibitor ODQ on sGC activation ([1]; with ODQ, effect in fact increased): not blocked
SMILES: CC(C)(C)c1ccc(COc2ccccc2/C=C/C(CCc2ccc(-c3nnn[nH]3)cc2)Cc2ccc(C(=O)O)cc2)cc1 (single isomer, unassigned) [Example 6, 4-((3E)-4-{2-[(4-tert-Butylbenzyl)oxy]phenyl}-2-{2-[4-(1H-tetrazol-5-yl)phenyl]ethyl}but-3-en-1-yl)benzoic acid]
- Period of blood pressure reduction [2]: 11 h
- Reduction in blood pressure [2]: marked reduction in blood pressure

Source: patent US8183271B2, “Tetrazole derivatives and their use for the treatment of cardiovascular diseases” (Bayer Intellectual Property GmbH, priority 2005, dated 2012)
